From patent publication US20260234660A1, “TREATMENT OF MUSCLE RELATED DISORDERS WITH ANTI-HUMAN CACNG1 ANTIBODIES” (Regeneron Pharmaceuticals, Inc., priority 2023, published 2026)
Counter-ions that a name gives are not always drawn.

Tested on: human myotubes
Assay: Acetylcholine-induced calcium flux assay in human myotubes (FLIPR)
Assay type: cell-based
Details: 20 μM nicardipine, positive control for calcium blocking
Procedure: CACNG1 is the γ1 subunit of the skeletal muscle specific L-type calcium channel, (dihydropyridine receptor), though genetic deletion of CACNG1 appears to have no major impact on skeletal muscle function. To determine whether antibodies that bind CACNG1 impact muscle function, a calcium flux assay was performed on human myotubes that were incubated with CACNG1 antibodies to determine whether these antibodies affect acetylcholine-induced calcium release.
Human skeletal myoblasts (Cook Myosite, Inc.) were plated at 10,000 cells/well of a 96-well plate and were differentiated for 7 days into myotubes. On the final day of differentiation, media was replaced with 50 μL of FLIPR calcium 5 dye with probenecid (Invitrogen) and 50 uL of assay buffer (0.1% BSA-DMEM) per well. CACNG1 and isotype control antibodies were serial diluted in assay buffer and added to the cells and incubated at 37° C. in a 5% CO2 incubator for 1 hour prior to the calcium flux assay. Nicardipine hydrochloride (Sigma) was added to untreated wells to serve as a control for calcium channel blockade. After 1 hour, acetylcholine (Sigma) was added at a 20 uM final concentration to induce myotube calcium release, and plates were assayed on a FLIPR Tetra (Molecular Devices, LLC).

## COC(=O)C1=C(C)NC(C)=C(C(=O)OCCN(C)Cc2ccccc2)C1c1cccc([N+](=O)[O-])c1 (stereo not shown) [nicardipine, Nicardipine hydrochloride, reference compound]
  effect on human myotube calcium release: substantially reduced human myotube calcium release
